The text below walks through data of patent US6953783B1, “Modulation of gene expression by combination therapy” (MethylGene, Inc., priority 1998, dated 2005).

pIC50: −log10 of the molar value.

One assay has as its target human DNA MeTase mRNA. As to the kind of experiment: Antisense inhibition of DNA MeTase mRNA (screen of phosphorothioate oligonucleotides). It is filed as cell-based. The text has this:
As shown in FIG. 1 the two […] regions were identified to be highly sensitive to antisense inhibition were targeted by MG88 having the sequence [NT] ID NO:1) (this oligonucleotide is targeted to the […] 5'UTR at nucleotides 532 to 513) and MG98 having the sequence [NT] ID NO:2) (this oligonucleotide is targeted to the […] 3'UTR at nucleotides 5218 to 5199). These oligonucleotides were chemically modified as follows: A equals 2'-deoxyriboadenosine; C equals 2'-deoxyribocytidine; G equals 2'-deoxyriboguanosine; T equals 2'-deoxyribothymidine; A equals riboadenosine; U equals uridine; C equals ribocytidine; and G equals riboguanosine. The underlined bases were 2'-methoxyribose substituted nucleotides. Non-underlined bases indicate deoxyribose nucleosides. The backbone of each oligonucleotide consisted of a phosphorothioate linkage between adjoining nucleotides.

Another assay deals with DNA MeTase protein. As to the kind of experiment: DNA MeTase protein levels by Western blotting in T24 cells. It is filed as cell-based, human. The text has this:
MG88 was next tested for an ability to inhibit DNA MeTase mRNA in two human neoplastic cells, A549 (human non-small cell lung carcinoma cells) and T24 (human bladder cancer cells). […] MG208 was modified as follows: A equals 2′-deoxyriboadenosine; C equals 2′-deoxyribocytidine; G equals 2′-deoxyriboguanosine; T equals 2′-deoxyribothymidine; A equals riboadenosine; U equals uridine; C equals ribocytidine; and G equals riboguanosine. The underlined bases were 2′-methoxyribose substituted nucleotides. Non-underlined bases indicate deoxyribose nucleosides. The backbone of MG208 consisted of a phosphorothioate linkage between adjoining nucleotides.
The MG88 and MG208 oligonucleotides were diluted to the desired concentration from a 0.1 mM stock solution in the transfection media. Cells were exposed to oligonucleotide plus lipofectin (or lipofectin only) for four hours on day 0 and four hours on day 1 (after each four hour treatment, cells were returned to complete media). On day 2 (i.e., 48 hours after the first treatment on day 0), cells were harvested, whole cell lysates were prepared, and DNA MeTase protein levels were analyzed by Western blotting analysis with a DNA MeTase-specific rabbit polyclonal antibody (generated according to standard techniques of a glutathione S -transferase fusion protein containing the first 10 kDa amino terminus from DNA methyltransferase protein). […] Equal loading of all lanes was confirmed by blotting for α-actin protein levels with an actin-specific rabbit polyclonal antibody (commercially available from Santa Cruz Biotech., Santa Cruz, Calif.).
Next, to determine whether de novo methylation and silencing of the re-expressed p16^ink4A gene occurred when DNA MeTase returned to normal levels, T24 cells were transfected for 10 consecutive days with either 40 or 75 nM or MG88 or MG208. […] Cell lysates of the T24 cells transfected for ten days were analyzed by Western blotting analysis for expression of DNA MeTase protein,p16^ink4A protein, and actin protein (as a control for equal loading) 3, 5, and 7 days after MG88 transfection.
Background: In western blotting, separated proteins are transferred to a membrane and probed.

A further assay relates to p16^ink4A promoter. As to the kind of experiment: Methylation specific PCR and bisulfite genomic sequencing of the p16^ink4A promoter in T24 cells. The format is cell-based, human. As to the method:
To identify changes in the methylation status of the p16^ink4A promoter induced by MG88 treatment, methylation specific PCR (MSP) and bisulfite genomic sequencing was performed as previously described ([…] et al. (1994) Nat. Gen. 8: 27-32; Frommer et al. (1991) Proc. Nat. Acad. Sci. USA 89: […]). […] Briefly, the Oncor p16 detection system was used (commercially available from Oncor, Gaithersburg, Md.). PCR was performed in a total volume of 25 μl under the following conditions: 100 ng bisulfate-treated DNA (Oncor),10 mM Tris-HCl, pH 8.3, […], 1.5 mM MgCl2, 250 μM dNTPs, 80 ng of each of the following primers ([NT] sense (SEQ ID NO: 79) and [NT] antisense (SEQ ID NO: 80)) and 1 unit of AmpliTaq Gold (Perkin-Elmer). The denaturation cycle was 95° C. for 12 min followed by 35 cycles at 95° C. for 45 seconds, 60° C. for 45 seconds, and 72° C. for 60 seconds, and an elongation cycle of 72° C. for 10 minutes. the PCR product (5 μl) was analyzed on a 2% agarose gel. The unmethylated (U) and demethylated (D) primers (commercially available from Oncor) were used at the same conditions as the specific primers.

In another assay the test system is T24 cells. As to the kind of experiment: T24 cell proliferation during and after treatment (cell counting). The format is cell-based, human. The text has this: To study the effect of specific inhibition of DNA MeTase on cell growth, cellular proliferation rates were monitored both during the treatment and post treatment periods to determine the duration of the effect. […] During and following treatment, cells were counted. […] To determine whether the transient re-expression of p16^ink4A and growth-inhibitory effects induced by short term treatment with MG88 were due to the expansion of a less affected (less demethylated) population of cells within the treated population, or to rapid inactivation of p16^ink4A after MG88 withdrawal, single cell clones were isolated after treatment. Several MG88 clones were, in fact, p16^ink4A negative, confirming that the MG88 treatment produced a mixed population of p16^ink4A positive and negative cells.

For a further assay, the system named is p21^WAF1 mRNA. As to the kind of experiment: RNase protection assay for p21 mRNA in T24 cells. The conditions noted are these: 40 nM, 24 or 48 hours. It is filed as cell-based, human. The protocol:
Next, to determine if p21^WAF1 was induced at the transcriptional level, RNase protection assay were performed on cells treated with 40 nM of either MG88 or MG208 for either 24 or 48 hours. Total cellular RNA was isolated from the cells and analysed for p21 mRNA, p27 mRNA, and p18 mRNA using the human cell cycle-2 (hcc-2) multiprobe RNase protection kit commercially available from PharMingen, San Diego, Calif.). RNA loading was determined to be equal using the signals from two housekeeping genes, L32 and GAPDH.

A word on the pIC50: it is the IC50 on a negative log10 scale, so that one unit is a factor of ten. High values mean a low IC50, low ones a high IC50. 5′-AAGCAT GAG CAC CGT TCUCC-3′ [MG88] gave a pIC50 on human DNA MeTase mRNA of 7.40. For the same substance, the “reduction in DNA MeTase protein levels” value in the assay on DNA MeTase protein (20, 40 or 80 nM with lipofectin, 4 h on day 0 and day 1, harvest day 2) is recorded as “dose-dependent reduction in DNA MeTase protein levels”. In addition, the “return of DNA MeTase protein to control levels post-treatment” value in the assay on DNA MeTase protein (after 10 day treatment with 40 nM) lay within 5 to 7 days. Also, in the assay with p16^ink4A promoter (T24 cells, day 5 of treatment, 15 sites in all), the “demethylated CpG sites of p16^ink4A promoter (bisulfite sequencing)” value amounted to 15 CpG sites. Further, the “re-methylated sites of p16^ink4A promoter” value with p16^ink4A promoter (T24 cells, three days after cessation of treatment) was 13 of 15. Moreover, the “demethylation of the p16^ink4A promoter region (MSP)” value in the assay with p16^ink4A promoter (T24 cells, treated 3, 5, 9 or 10 days) is recorded as “occurred as early as day 3 of MG88 treatment”. Moreover, the “methylation of p16^ink4A promoter in positive clone C4-5” value with p16^ink4A promoter (thirty days after a five day treatment (75 nM)) is “completely non methylated at all CpG sites evaluated”. The “antiproliferative and cell death effect” value in the assay on T24 cells (75 nM, 10 consecutive days) is “significant antiproliferative and cell death inducing effect”. For the same substance, the “cell proliferation during treatment” value in the assay on T24 cells (75 nM, days 0-5, relative to lipofectin) is listed as “dramatically inhibited cell proliferation”. The “persistence of inhibition of cell proliferation” value in the assay with T24 cells (after 5 day treatment with 75 nM) is “approximately one week post-treatment”. Moreover, the “p21^WAF1 mRNA” value with p21^WAF1 mRNA is “no increase in p21^WAF1 mRNA”.
